Results reported in patent publication US8592419B2, “Ceramides and apoptosis-signaling ligand” (MUSC Foundation for Research Development, priority 2004, dated 2013).

Columns and labels:
[1] = tested on: total ceramide levels in DU145 cells; experiment: Ceramide measurement by mass spectrometry; format: cell-based, human; conditions: 10 μM
Procedure: Ceramide measurement. 2.1×10^6 cells were seeded in 100 mm plates overnight. The next day, media was removed and replaced with media containing vehicle control or LCL204 (10 μM) for indicated time points. Following treatment, cells were harvested by gentle scraping and immediate centrifugation at 4° C. for 5 minutes at 400×g. Cell pellets were then resuspended in ice cold PBS and stored at −80° C. For sphingolipid analysis, cell pellets were examined using mass spectometry as previously described (61).

[2] = tested on: JNK; experiment: Immunoblot of phosphorylated JNK; format: cell-based, human; conditions: DU145 and PC-3 cells
Procedure: (§1) Immunoblot analysis. Cells were seeded in 60mm plates as described above and treated accordingly. Cells were lifted by gently scraping the plates, washed once with ice cold PBS and then lysed in lysis buffer (PBS, 1% Triton X-100, 10% glycerol) containing protease inhibitors pepstatin A (0.5 μg/ml), leupeptin (0.5 μg/ml), aprotinin (5 μg/ml), and PMSF (100 μg/ml) for 10 minutes on ice. Insoluble material was removed by centrifugation at 14,000 rpm for 15 minutes at 4° C. The supernatants were then supplemented with SDS at a final concentration of 2% and stored at −80° C. Protein concentrations were determined using the DC Protein Assay (BioRad Laboratories; Hercules, CA, USA) according to the manufacturer's instructions. 50 μg of protein per sample (unless otherwise indicated) were separated on NuPAGE 4-12% Bis-Tris gels (Invitrogen; Carlsbad, CA, USA) and transferred to nitrocellulose membranes (BioRad). Following transfer, membranes were blocked for 1 hour at room temperature in Tris-buffered saline (TBS) containing 0.1% Tween-20 and 5% nonfat dry milk and incubated overnight at 4° C. with primary antibody at a dilution of 1:2,000(actin), 1:1,000(cytochrome c, COX IV, Bax, Bak, p53, p38, P-p38), 1:500(P-JNK, JNK), 1:250 (AC, p73), or 1:400(LAMP-1, cathepsin B). Overnight incubations were performed in 5% milk in TBS-Tween. […]

[3] = target: T1, acid ceramidase (AC) (Homo sapiens, UniProt Q13510); experiment: Immunoblot of acid ceramidase protein; format: cell-based; conditions: DU145 cells
T1 construct: endogenous in cells
T1 sequence (Q13510 22-395): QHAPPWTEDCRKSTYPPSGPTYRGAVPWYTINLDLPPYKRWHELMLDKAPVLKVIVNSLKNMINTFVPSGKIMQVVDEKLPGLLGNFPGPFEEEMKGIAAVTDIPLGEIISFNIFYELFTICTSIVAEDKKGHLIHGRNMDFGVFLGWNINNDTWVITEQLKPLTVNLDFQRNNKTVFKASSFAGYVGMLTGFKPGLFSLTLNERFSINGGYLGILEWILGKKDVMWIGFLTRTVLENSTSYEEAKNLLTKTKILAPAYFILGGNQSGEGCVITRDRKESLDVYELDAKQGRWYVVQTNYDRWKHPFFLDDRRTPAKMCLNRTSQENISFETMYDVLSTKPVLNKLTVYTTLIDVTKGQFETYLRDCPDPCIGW
Procedure: Immunoblot analysis. Cells were seeded in 60mm plates as described above and treated accordingly. Cells were lifted by gently scraping the plates, washed once with ice cold PBS and then lysed in lysis buffer (PBS, 1% Triton X-100, 10% glycerol) containing protease inhibitors pepstatin A (0.5 μg/ml), leupeptin (0.5 μg/ml), aprotinin (5 μg/ml), and PMSF (100 μg/ml) for 10 minutes on ice. Insoluble material was removed by centrifugation at 14,000 rpm for 15 minutes at 4° C. The supernatants were then supplemented with SDS at a final concentration of 2% and stored at −80° C. Protein concentrations were determined using the DC Protein Assay (BioRad Laboratories; Hercules, CA, USA) according to the manufacturer's instructions. 50 μg of protein per sample (unless otherwise indicated) were separated on NuPAGE 4-12% Bis-Tris gels (Invitrogen; Carlsbad, CA, USA) and transferred to nitrocellulose membranes (BioRad). Following transfer, membranes were blocked for 1 hour at room temperature in Tris-buffered saline (TBS) containing 0.1% Tween-20 and 5% nonfat dry milk and incubated overnight at 4° C. with primary antibody at a dilution of 1:2,000(actin), 1:1,000(cytochrome c, COX IV, Bax, Bak, p53, p38, P-p38), 1:500(P-JNK, JNK), 1:250 (AC, p73), or 1:400(LAMP-1, cathepsin B). Overnight incubations were performed in 5% milk in TBS-Tween. Following overnight incubation, membranes were washed three times for 10 minutes each in TBS-Tween and incubated for 1 hour at room temperature with secondary antibody in 5% milk TBS-Tween at a dilution 1:5,000 (goat anti-mouse IgG) or 1:50,000 (goat anti-rabbit). Membranes were then washed three times more and incubated for 5 minutes at room temperature with Super Signal HRP substrate (Pierce Biotechnology Inc.; Rockford, IL, USA).

[4] = tested on: cFLIPS, Survivin, cIAP-1, RIP, Caspase 8; experiment: Anti-apoptotic proteins and caspase 8 after LCL204; conditions: DU145 cells
[5] = tested on: mitochondria membrane potential in DU145 cells; experiment: Mitochondria membrane potential measurement (JC-1); format: cell-based, human; conditions: 5 μM
Procedure: Mitochondria membrane potential measurement. Cells were seeded at a density of 7.49×10^5 cells per plate in 60 mm plates overnight. The next day, media was replaced with media containing vehicle control or LCL204 (5 μM). Cells were lifted using Cell Stripper (Mediatech), washed twice in PBS, and resuspended in 3 ml 1×JC-1 reagent solution (dissolved in medium). Samples were incubated at 37° C. for 15 minutes, washed twice with PBS, and resuspended in 0.5 ml growth medium before analysis by flow cytometry using a Beckton-Dickinson FACSCalibur (590 nm/527 nm emission). A minimum of 10,000 events were scored for each sample.

[6] = tested on: Bax; experiment: Immunoblot of Bax; format: cell-based, human; conditions: PC-3 cells, 10 μM
Procedure: as §1

[7] = tested on: Caspases 3 and 7; experiment: Caspase 3/7 activity assay; format: cell-based, human; conditions: DU145 cells, 24 hours treatment
Procedure: Caspase 3/7 Activity Assay. Cells were seeded overnight in clear bottom black 96 well plates (Corning; Acton Mass.). The next day, medium was removed and replaced with medium containing vehicle or LCL204 at indicated concentrations. After 24 hours treatment, Caspases 3 and 7 activities were measured using Apo-ONE Homogeneous Caspase 3/7 assay according to the manufacturer's instructions (Promega). Fluorescence was measured using a Fluostar dual fluorescence/absorbance plate reader (BMG Laboratories; Durham, N.C., USA) with 485 nm excitation and 520 nm emission filter set.

[8] = tested on: DU145 cells; experiment: Cell death by MTS assay, ceramide analog combined with AdGFPFasL virus; format: cell-based, human
Procedure: LCL102, a ceramidase inhibitor, which acts to increasing intracellular ceramide levels by […], were tested in this system. This molecule was highly efficient at activating cell death in DU145 cells at nontoxic doses if combined with AdGFPFasL virus at MOIs achievable in vivo. DU145 cells growing in 96 well plates at 1×10^4 cells/well are treated with either media alone or LCL102 at 2 uM for 48 hours followed by AdGFPFasL for 24 hours at the MOI (5-80). Cell death is assayed by the MTS assay. At 2 uM LCL102 and 5MOI of virus, cell death is amplified 4-fold compared to LCL102 alone (FIG. 14).

For `CCCCCCCCCCCCCCN[C@H](CO)[C@H](O)c1ccc([N+](=O)[O-])cc1.Cl` [LCL204, (1R,2R) D-threo-2-N-Tetradecylamino-1-(4′-nitrophenyl)-1,3-propandiol hydrochloride], the total ceramide levels [1] was “rise in total ceramide levels within one hour”, the “phosphorylation and activation of JNK” value [2] was “beginning as early as three hours” and the “earliest down-regulation of AC” value ([3]; 5 μM) was 2 h. The AC expression levels [3] was “dose and time-dependent decrease in AC expression levels”, the “Caspase 8” value [4] was “unaffected” and the anti-apoptotic proteins [4] was “down-regulation of anti-apoptotic proteins cFLIPS, Survivin, cIAP-1, and RIP”. The “earliest observed decrease in ΔΨm” value [5] was 2 h, the Bax protein levels [6] was “unaffected” and the executioner caspase activity [7] was “dose-dependent executioner caspase activity”. For the same compound, the “increase in cancer cell death” value ([8]; 2 μM in combination with AdGFPFasL virus at low MOIs) was ≤ 10 fold, the viral infectivity ([8]; DU145 cells) was “not modifying viral infectivity” and the “increase of the ability of AdGFPFasL to kill tumor cells” value ([8]; in vitro, subtoxic doses) was “as much as ten-fold”.
